≈ marks a conversion by molar mass, not a printed value.
settings: buffer; pH 7.4; 200.0 µM

| SMILES | solubility kinetic |
| --- | --- |
| COc1ccc(NC(=O)C(=O)Nc2cccc3ccccc23)c(OC)c1 | < 0.4 µg/mL |
| O=C(O)/C=C/c1ccc2noc(-c3ccccc3)c2c1 | 3.7 µg/mL (≈ 13.9 µM) |
| Nc1ncnc(NC2CCS(=O)(=O)C2)c1[N+](=O)[O-] (centres undefined) | > 41 µg/mL |
| Cc1cccc(N2C(=O)/C(=C/c3ccccn3)SC2=S)c1 | < 0.3 µg/mL |
| O=C(Cc1ccccc1)OCC(=O)c1cccc([N+](=O)[O-])c1 | > 44.9 µg/mL |
| Cc1cc(=O)[nH]c(SCC(=O)NCC2CCCO2)n1 (centres undefined) | > 42.5 µg/mL |
| COc1ccccc1C(C)NC(=O)CCNC(=O)c1ccc(Cl)cc1 (centres undefined) | 4.5 µg/mL (≈ 12.5 µM) |
| Cc1ccc(C)c(C(C)NC(=S)NCc2ccc(F)cc2)c1 (centres undefined) | 1.4 µg/mL (≈ 4.42 µM) |
| Br.Cn1c(=N)n(CC(=O)c2ccc(F)cc2)c2ccccc21 | > 54.6 µg/mL |
| O=C(CCl)Nc1c[nH]c(=O)[nH]c1=O | > 30.5 µg/mL |
| Cc1ccc(CNC(=O)Cc2cn(C)c3ccccc23)cc1 | 2.2 µg/mL (≈ 7.52 µM) |
| COc1ccccc1NC(=O)c1ccc(C(=O)c2ccccc2)o1 | 8.8 µg/mL (≈ 27.4 µM) |
| Cc1[nH]c(=O)[nH]c(=O)c1S(=O)(=O)Nc1ccc(F)c(Cl)c1 | > 50.1 µg/mL |
| O=C(Cc1ccc(F)cc1)Nc1nccs1 | 34.4 µg/mL (≈ 146 µM) |
| NC(=O)C1CCCN1S(=O)(=O)c1ccc2ccccc2c1 (centres undefined) | > 45.7 µg/mL |
| Cc1ccc(-n2nc(C)cc2NC(=O)CC#N)cc1 | > 38.1 µg/mL |
| Cc1cc(C(=O)NC(C)CCc2ccccc2)ccc1[N+](=O)[O-] (centres undefined) | 4 µg/mL (≈ 12.8 µM) |
| Cc1ccc(OCCNC(=O)c2ccc(C)cc2)cc1 | 3.8 µg/mL (≈ 14.1 µM) |
| Cc1ccccc1C(=O)OC(C)CN1CCN(C)CC1.Cl (centres undefined) | > 46.9 µg/mL |
| CC1(C)Cc2cccc(OCC(=O)Nc3ccccc3C(F)(F)F)c2O1 | 7.5 µg/mL (≈ 20.5 µM) |
| Cc1c(NS(=O)(=O)c2cc(C(=O)NCc3cccnc3)ccc2Cl)c(=O)n(-c2ccccc2)n1C | > 76.8 µg/mL |
| Cc1nc(N)nc(COc2ccccc2)n1 | > 32.4 µg/mL |
| COc1cccc(COC(=O)Nc2ccccc2F)c1 | 18.9 µg/mL (≈ 68.7 µM) |
| Cl.Fc1ccccc1Nc1nc(Cl)nc(Cl)n1 | > 44.3 µg/mL |

| SMILES | solubility kinetic |
| --- | --- |
| O=C(Nc1cccc2cccnc12)c1ccccc1Cl | 0.3 µg/mL (≈ 1.06 µM) |
| O=C(O)CC1c2ccccc2CCN1S(=O)(=O)c1ccccc1 (centres undefined) | > 49.7 µg/mL |
| CC(C)N(C(=O)CSc1nc2ccccc2c(=O)[nH]1)C(C)C | 46.4 µg/mL (≈ 145 µM) |
| CS(=O)(=O)N1CCCC(C(=O)Nc2ccccc2C(F)(F)F)C1 (centres undefined) | > 52.6 µg/mL |
| Cl.NCCSC1CC(=O)N(c2ccc(Cl)c(Cl)c2)C1=O (centres undefined) | 32.8 µg/mL |
| C=CCN(c1ccccc1OC)S(=O)(=O)c1cccc(C(=O)OC2CCOC2=O)c1 (centres undefined) | 56.7 µg/mL (≈ 131 µM) |
| O=C(COC(=O)c1ccc(C(F)(F)F)cc1)Nc1cccc(S(=O)(=O)NC2=NCCCCC2)c1 | 10.5 µg/mL (≈ 21.1 µM) |
| N#Cc1cn(Cc2ccccc2)c(=O)[nH]c1=O | > 34.1 µg/mL |
| COC(=O)c1cc(C(=O)NC(C)C2CC3CCC2C3)cc([N+](=O)[O-])c1 (centres undefined) | 11 µg/mL (≈ 31.8 µM) |
| CN1CCC(NC(=O)NC2CCCCC2)CC1 | > 35.9 µg/mL |
| O=C(CNC(=O)c1ccccc1F)Nc1ccc2c(c1)OCO2 | 23.2 µg/mL (≈ 73.4 µM) |
| N#C/C=C/N1CCN(C(=O)c2ccco2)CC1 | > 34.7 µg/mL |
| CC(C)(CNc1ccc([N+](=O)[O-])cc1Cl)N1CCOCC1 | 1.4 µg/mL (≈ 4.46 µM) |
| O=C(CNS(=O)(=O)c1ccc(F)c(Cl)c1)N1CCCC1 | 44.1 µg/mL (≈ 137 µM) |
| O=C([O-])c1cc(-c2cccnc2)nc2ccccc12.[K+] | 8.7 µg/mL |
| O=c1[nH]c(N2CCCCC2)nc2ncn(Cc3ccccc3)c12 | 33.3 µg/mL (≈ 108 µM) |
| Cc1cn(Cc2ccccc2Cn2cc(C)c(=O)[nH]c2=O)c(=O)[nH]c1=O | 52.3 µg/mL (≈ 148 µM) |
| FC(F)(F)c1ccccc1-n1c(-c2cnccn2)n[nH]c1=S | > 48.5 µg/mL |
| O=C(O)CC(NC(=O)C12CC3CC(CC(C3)C1)C2)c1cccc([N+](=O)[O-])c1 (centres undefined) | > 55.9 µg/mL |
| CN(C)C(=S)c1ccccc1 | 21.4 µg/mL (≈ 129 µM) |
| Fc1ccc(CN2CCN(c3ncccn3)CC2)c(F)c1 | 32.2 µg/mL (≈ 111 µM) |
| CCCCC(=O)NC1(C(F)(F)F)NC(=O)N(Cc2ccccc2)C1=O (centres undefined) | 46.1 µg/mL (≈ 129 µM) |
| Cc1cc(C)c2cc(C(=O)N3CCC(Cc4ccccc4)CC3)[nH]c2c1 | < 0.4 µg/mL |
| Cc1ccccc1/C=C/C12NC(=O)CN1c1ccccc1C2(C)C (centres undefined) | 1 µg/mL (≈ 3.14 µM) |

| SMILES | solubility kinetic |
| --- | --- |
| O=C(NCCNC(=O)c1cc(Cl)ccc1Cl)c1ccccn1 | > 50.7 µg/mL |
| N[C@H]1CONC1=O | > 15.3 µg/mL |
| CC1(C)Cn2c(nc(=O)c3c2NCN(CCc2ccccc2)C3)S1 | > 51.4 µg/mL |
| O=C(COC(=O)c1ccc2ccccc2n1)c1ccc(F)cc1 | 16.8 µg/mL (≈ 54.3 µM) |
| CC(=O)Nc1ccc(C2C(=O)c3ccccc3C2=O)cc1 | 39 µg/mL (≈ 140 µM) |
| CCOc1ccc(C2=CSC3=NCCN23)cc1[N+](=O)[O-] | 36.2 µg/mL (≈ 124 µM) |
| Cc1cccc2nc3ccccc3nc12 | 0.7 µg/mL (≈ 3.6 µM) |
| CCN(CC)CC(=O)Nc1scc2c1c(=O)oc1ccccc12 | < 0.4 µg/mL |
| Cc1cc(C(=O)NCCc2ccc(Cl)cc2)c(C)o1 | 31.1 µg/mL (≈ 112 µM) |
| CCOC(=O)N1CCN(CC(O)c2c[nH]c3ccc(OC)cc23)CC1 (centres undefined) | > 52.1 µg/mL |
| Cc1ccc2cccc(NS(=O)(=O)c3ccccc3)c2n1 | < 0.3 µg/mL |
| O=S(=O)(Nc1ccon1)c1ccc(Br)cc1 | 32.2 µg/mL (≈ 106 µM) |
| CCOC(=O)c1c(NC(=O)c2ccccc2C(=O)O)sc2c1CCCC2 | 41.5 µg/mL (≈ 111 µM) |
| Cc1nc(NC(=O)c2cncc(Br)c2)ccc1Br | 2.1 µg/mL (≈ 5.66 µM) |
| COc1ccc(CNc2ncccc2[N+](=O)[O-])cc1 | 17 µg/mL (≈ 65.6 µM) |
| CCCCc1cc(C)c(S(=O)(=O)c2ccccc2C)c(=O)[nH]1 | 3.8 µg/mL (≈ 11.9 µM) |
| COC(=O)c1scc(C)c1NC(=O)c1ccc(Cl)cc1 | 21.3 µg/mL (≈ 68.8 µM) |
| Cc1cc(C)cc(NC(=S)N(CCN(C)C)Cc2cccs2)c1 | 43.7 µg/mL (≈ 126 µM) |
| C=CCN1C(=O)C(CC(=O)O)SC1=Nc1cccc([N+](=O)[O-])c1 (centres undefined) | > 50.3 µg/mL |
| CCN(CC)C(=O)CN1C(=O)NC2(CCc3ccccc3C2)C1=O (centres undefined) | > 49.4 µg/mL |
| CCOC(=O)/C(C#N)=C\c1cccnc1 | > 30.3 µg/mL |
| O=Cc1ccc(-c2ccc([N+](=O)[O-])cc2Cl)o1 | 5.2 µg/mL (≈ 20.7 µM) |
| CC(C)C(NC(=O)c1ccccc1NC(=O)C(C)(C)C)C(=O)N1CCOCC1 (centres undefined) | 37 µg/mL (≈ 95 µM) |
| O=C(COc1ccc(F)cc1Cl)N1CCN(C(=O)c2cccs2)CC1 | > 57.4 µg/mL |

| SMILES | solubility kinetic |
| --- | --- |
| O=C(CSc1ncccn1)N1CCC(Cc2ccccc2)CC1 | > 49.1 µg/mL |
| COc1ccc(C(=O)OCC(=O)N2CCN(C(=O)c3ccco3)CC2)cc1OC | > 60.4 µg/mL |
| S=C(NCc1ccco1)N1CCN(c2cccc(Cl)c2)CC1 | 12 µg/mL (≈ 35.7 µM) |
| N#Cc1ccccc1OCC(=O)NNC(=O)c1ccncc1 | > 44.4 µg/mL |
| CN(CC(=O)NCCc1ccccc1)Cc1ccco1 | > 40.9 µg/mL |
| Cc1ccc(NS(=O)(=O)c2ccc3c(c2)n(C)c(=O)n3C)cc1C | 1.2 µg/mL (≈ 3.47 µM) |
| Cc1c(NC(=O)C(C)C)cccc1-c1nc2ncccc2o1 | > 44.3 µg/mL |
| O=C1N(Cc2cccc(Cl)c2)C[C@@H]2C[C@@H](c3ccccn3)N3CCC[C@@]123 | 39 µg/mL (≈ 106 µM) |
| Cc1ccc2oc(C(=O)N3CCCCCC3)c(C)c2c1 | 16.6 µg/mL (≈ 61.2 µM) |
| COc1ccc(S(=O)(=O)N2CCN(C)CC2)cn1 | > 40.7 µg/mL |
| COc1ccccc1CNCC(c1ccccc1)c1ccccc1 | 33.6 µg/mL (≈ 106 µM) |
| CCOC(=O)c1cn(CC)c2cc(F)c(F)cc2c1=O | > 42.2 µg/mL |
| Cc1ccc(S(=O)(=O)NCc2cccnc2)cc1 | > 39.3 µg/mL |
| COc1cc(SC)ccc1C(=O)NCCN1CCOCC1 | > 46.6 µg/mL |
| Cc1sc2ncnc(N3CCCC(C)C3)c2c1C.Cl (centres undefined) | 11 µg/mL |
| Cn1ccnc1CC(O)(c1ccccc1)c1ccccc1 | 20.4 µg/mL (≈ 73.3 µM) |
| COc1ccc(CCNC(=O)Cc2ccc(C)cc2)cc1OC | > 47 µg/mL |
| CC(C)(C)C(=O)Nc1ccc(F)cc1[N+](=O)[O-] | 13.8 µg/mL (≈ 57.4 µM) |
| Cc1cccc(NS(=O)(=O)c2ccc3[nH]c(=O)[nH]c3c2)c1C | 5 µg/mL (≈ 15.8 µM) |
| NNC(=O)c1ccc(COCC(F)(F)C(F)F)cc1 | > 42 µg/mL |
| CC(C)(C)C(=O)Nc1ccc(-c2cn3cccnc3n2)cc1 | 42.6 µg/mL (≈ 145 µM) |
| CCOC(=O)c1ccsc1NC(=O)c1ccco1 | < 0.6 µg/mL |
| COC(=O)c1cc(N=C(N)N=C(N)N)cc(C(=O)OC)c1 | > 44 µg/mL |
| O=C(CCCNC(=O)c1ccc(Cl)cc1)Nc1cccc(F)c1 | 5.6 µg/mL (≈ 16.7 µM) |

| SMILES | solubility kinetic |
| --- | --- |
| COc1ccc2c(c1)-c1nc(/N=C/c3c(O)ccc4ccccc34)sc1CC2 | 27.1 µg/mL (≈ 70.1 µM) |
| O=C(CCC(=O)NC12CC3CC(CC(C3)C1)C2)NC1CCCCC1 | 17.2 µg/mL (≈ 51.7 µM) |
| CNc1nc(-c2ccccc2)cc(-c2ccccc2)n1 | 1.4 µg/mL (≈ 5.36 µM) |
| Cc1ccc(N2C(=O)C(F)(F)C2c2ccccc2)cc1 (centres undefined) | 1 µg/mL (≈ 3.66 µM) |
| O=C(O)CCCCCNC(=O)C(=O)C1C(=O)Nc2ccccc21 (centres undefined) | > 47.7 µg/mL |
| COc1ccc(NC(=O)c2onc(C)c2Cl)cc1 | 10 µg/mL (≈ 37.5 µM) |
| COc1ccc(Cl)cc1C(=O)O/N=C(\N)c1ccncc1 | 32.5 µg/mL (≈ 106 µM) |
| CC(=O)Nc1ccc(/C=C/c2ccc3c([N+](=O)[O-])cccc3n2)cc1 | 16.2 µg/mL (≈ 48.6 µM) |
| COc1ccc(/C=C2/C(=O)ON=C2C)cc1Cl | 23.6 µg/mL (≈ 93.8 µM) |
| Cc1cc(/C=C(\C#N)C(=O)Nc2ccccc2F)c(C)[nH]1 | 0.8 µg/mL (≈ 2.82 µM) |
| CC(C(=O)N1CCc2ccccc21)N1CCN(Cc2ccccc2)CC1 (centres undefined) | > 52.4 µg/mL |
| COc1ccc2[nH]c(C(=O)N(C)Cc3ccccc3)c(C)c2c1 | 9.1 µg/mL (≈ 29.5 µM) |
| COc1nc(C)cc(C)c1S(=O)(=O)c1ccccc1C | 4.8 µg/mL (≈ 16.5 µM) |
| CN(CC(=O)Nc1cccc(F)c1)C(=O)CC1CCCCC1 | 21.1 µg/mL (≈ 68.9 µM) |
| O=C(CNC(=O)c1ccccc1)NCCc1ccc(O)c(O)c1 | > 47.2 µg/mL |
| CCCC(=O)OCC(=O)Nc1ccccc1C#N | > 36.9 µg/mL |
| O=C(NCCSCc1ccc(Cl)cc1)c1cccs1 | 21.5 µg/mL (≈ 68.9 µM) |
| O=C(COC(=O)c1cccc(O)c1)Nc1ccc(OC(F)F)cc1 | 46.2 µg/mL (≈ 137 µM) |
| CCOc1cc(C#N)ccc1OCC(=O)N1CCc2ccccc2C1 | 45.5 µg/mL (≈ 135 µM) |
| CN(Cc1cccc(F)c1)CC(O)COCc1ccccc1Cl (centres undefined) | 44.9 µg/mL (≈ 133 µM) |
| Cc1ccccc1CSCC(=O)NCCSc1ccccn1 | 49.1 µg/mL (≈ 148 µM) |
| Oc1cccc2ccc(/C=C/c3ccccc3Cl)nc12 | < 0.6 µg/mL |
| CCC(CO)NC(=O)c1ccccc1C(F)(F)F (centres undefined) | 28 µg/mL (≈ 107 µM) |

Reference: PubChem BioAssay AID1996
